Data taken from US20130136772A1, “REGULATION OF IMMUNE RESPONSE BY COLOCYNTHIN AND/OR ITS DERIVATIVES” (priority 2010, published 2013).

Columns and labels:
[1] = tested on: TNF-α; assay: Intracellular TNF-α estimation in LPS activated murine neutrophils by flowcytometry; format: cell-based; conditions: for Expression of intracellular TNF-alpha, Mean ± S.E: LPS 10 ng/ml, 3 h
Experimental: Flowcytometric studies were carried out to determine the anti-inflammatory effect of AD-B-63B on TNF-α cytokine expression in LPS activated murine neutrophils. Neutrophils play essential roles in host defence through their ability to clear bacterial infections. Their inappropriate activation contributes to a variety of inflammatory diseases, from the acute respiratory distress syndrome to asthma, chronic obstructive pulmonary disease and rheumatoid arthritis. TNF-α was chosen as the target for anti-inflammatory activity because of the fact that it is a pro-inflammatory cytokine and plays a major role in the pathogenesis of septic shock induced by LPS (Lipopolysaccharide) endotoxin injection [Remick, D. G.; Strieter, R. M.; Eskandari, M. K.; Nguyen, D. T.; Genord, M. A.; Raiford, C. L. Am. J. Path. 1990, 136, 49.]. LPS is an important triggering factor for in vivo systemic inflammatory response [Bone, R. C. Chest 1991, 100, 802]. LPS activates neutrophils via engagement of TLR4 (Toll-like receptor 4),[Sabroe, I.; Read, R. C.; Whyte, M. K. B.; Dockrell, D. H.; Vogel, S. N.; Dower, S. K. J. Immunol. 2003, 171, 1630.] resulting in the induction of a characteristic pro-inflammatory phenotype and prolongation of cell lifespan [Lee, A.; Whyte, M. K. B.; Haslett, C. J. Leukoc. Biol. 1993, 54, 283].
The anti-inflammatory activity of AD-B-63B was measured by the estimation of intracellular tumor necrosis factor alpha (TNF-α) expression in a gated population of neutrophils [Clara, B., R. C. Arancha, G. M. Andre's, P. Atanasio, A. Julia, and O. Alberto. 2003. A new method for detecting TNF-α-secreting cells using direct immunofluorescence surface membrane stainings. J. Immuno. Methods 264:77-87.]. Murine blood was subjected to centrifugation at 250× g for 20 min. Three layers were formed: an upper layer of platelet-rich plasma, a buffy coat middle layer and a lower layer formed of red blood cells. The middle layer was removed and subjected to Histopaque 1077 (Sigma) gradient separation. The upper layer containing neutrophils was removed and transferred to FACS tubes (Becton Dickinson). Lipopolysaccharide (LPS) derived from Escherichia coli (Sigma) was added at a concentration of 10 ng/ml for the stimulation of the cells. AD-B-63B was added at graded concentrations of 0.5, 1, 2.5, 5, 10 and 20 μg/ml. Samples were incubated for 3 h at 37° C. ( Table 1) Controls consisted of LPS-stimulated cells (LPS control). Further processing was done by the addition of FACS permeabilizing solution (Becton Dickinson), followed by the addition of phycoerythrin (PE)-labeled anti-mouse TNF-α. (Becton Dickinson). The cells were incubated in the dark, and after being washed with sterile PBS, samples were resuspended in PBS (pH 7.4) and acquired directly on the flow cytometer (FACS CANTO; Becton Dickinson). A fluorescence trigger was set on the […] parameter of the gated neutrophil populations (10,000 events). Rolipram at 100 μg/ml was used as standard inhibitor of TNF-α in this study. Fluorescence compensation, data analysis and data presentation were performed using software (Becton Dickinson) (FIG. 1) [Pandey A, Bani S, Kaul S, Sangawan P L; 2010, Selective Th1 upregulation by ethyl acetate fraction of Labisia pumila; 132 (2010) 309-315].

[2] = tested on: IFN-γ; assay: Intracellular IFN-γ expression in SRBC immunised mice; format: in vivo, Swiss albino mice; conditions: graded doses; inhibition observed at 5 and 10 mg/kg p.o.
Experimental: Estimation of intracellular cytokines: The animals were immunized as mentioned above. After 6 days of drug administration, the animals were challenged on day 7. After 48 h of challenge, the blood was collected in the tubes containing EDTA (anti-coagulant) from retro-orbital plexes of animals to determine the effect of test material on the expression of intracellular IL-2 and IFN-γ (Th1) and IL-4 (Th2) cytokines. In this study, PE labeled IL-2 monoclonal antibody was used in one set and PE labeled IFN-γ and FITC labelled IL-4 monoclonal antibody was used in the other set of experimentation (FIG. 7, 8, 9).

[3] = tested on: leucocyte migration; assay: In vivo leucocyte migration (carrageenan induced pleurisy); parameters: species or system mice; conditions: for EXUDATE VOLUME Mean ± S.E.: 1 h before and 6 h after carrageenan, pleural exudate at 24 h
Experimental: Mice were injected with 0.2 ml of carrageenan (1% w/v) solution in sterilised normal saline into the pleural cavity by the modified method of Meacock and Kitchen, 1979 [Meacock S C R, Kitchen E A, (1979). Effect of non-steroidal antiinflammatory drug benoxaprofen on leukocyte migration. Journal of Pharmacy & Pharmacology; 31: 366-370]. The test drug was administered orally 1 h before and 6 h after the injection. After 24 h of carrageenan injection the pleural exudate was collected, volume measured and the total leucocyte count of the pleural fluid was determined (Table 3). Flowcytometry as a tool for evaluation of neutrophils is particularly useful because of their larger size than monocytes and lymphocytes when analysed on the forward scatter [FSc]. The percentage of these can be analysed by selectively ‘gating’ the neutrophils without physical separation of the cells (FIG. 4).

[4] = tested on: cell mediated immune response (DTH); assay: SRBC induced delayed type hypersensitivity (DTH) response; format: in vivo, mice; conditions: for FOOT PAD THICKNESS Mean ± SE: 24 h after SRBC challenge
Experimental: Test material was administered 2 h after immunization of mice by 200 μl of 5×10^9 SRBCs/ml. On 7th day, the thickness of the left hind foot was measured with spheromicrometer (0.01 mm pitch) and was considered as control. These mice were then challenged by injecting the 20 μl of 5×10^9 SRBCs/ml intradermally into the left hind footpad. The footpad thickness was measured again at 24 h after challenge (Doherty, 1981).

[5] = graded oral doses, highly significant effect at 10 mg/kg oral dose

CC(=O)OC(C)(C)/C=C/C(=O)[C@](C)(O)[C@H]1[C@H](O)C[C@@]2(C)[C@@H]3CC=C4[C@@H](C=C(O[C@@H]5O[C@H](CO)[C@@H](O)[C@H](O)[C@H]5O)C(=O)C4(C)C)[C@]3(C)C(=O)C[C@]12C [AD-B-63B, 2-O-β-D-glucopyranosyl cucurbitacin E]
% TNF-alpha inhibition against LPS control ([1]; 0.5 μg/ml): 13.01↓ % | Expression of intracellular TNF-alpha, Mean ± S.E ([1]; 0.5 μg/ml): 2.34 ± 0.07 | % TNF-alpha inhibition against LPS control ([1]; 1.0 μg/ml): 24.16↓ % | Expression of intracellular TNF-alpha, Mean ± S.E ([1]; 1.0 μg/ml): 2.04 ± 0.06 | % TNF-alpha inhibition against LPS control ([1]; 5.0 μg/ml): 50.55% | Expression of intracellular TNF-alpha, Mean ± S.E ([1]; 5.0 μg/ml): 1.33 ± 0.06 | % TNF-alpha inhibition against LPS control ([1]; 10.0 μg/ml): 60.59% | Expression of intracellular TNF-alpha, Mean ± S.E ([1]; 10.0 μg/ml): 1.06 ± 0.03 | Expression of intracellular TNF-alpha, Mean ± S.E ([1]; […]): 1.84 ± 0.03 | expression of IFN-γ [2]: decrease | % inhibition of exudate volume ([3]; 1 mg/kg p.o.): (22.72%↓) | % inhibition of total leucocyte count ([3]; 1 mg/kg p.o.): (12.12%↓) | EXUDATE VOLUME Mean ± S.E. ([3]; 1 mg/kg p.o.): 0.85 ± 0.10 mL | % inhibition of exudate volume ([3]; 5 mg/kg p.o.): (38.18%↓) | % inhibition of total leucocyte count ([3]; 5 mg/kg p.o.): (23.52%↓) | EXUDATE VOLUME Mean ± S.E. ([3]; 5 mg/kg p.o.): 0.68 ± 0.18 mL | % inhibition of exudate volume ([3]; 10 mg/kg p.o.): (44.54%↓) | % inhibition of total leucocyte count ([3]; 10 mg/kg p.o.): (24.39%↓) | EXUDATE VOLUME Mean ± S.E. ([3]; 10 mg/kg p.o.): 0.61 ± 0.10 mL | exudates volume against control [3, 5]: dose dependent inhibition | total leucocytes count against control [3, 5]: dose dependent inhibition | PERCENT INHIBITION (DTH response) ([4]; 1 mg/kg p.o.): 15.21↓ % | FOOT PAD THICKNESS Mean ± SE ([4]; 1 mg/kg p.o.): 0.78 ± 0.01 mm | PERCENT INHIBITION (DTH response) ([4]; 5 mg/kg p.o.): 28.26↓ % | FOOT PAD THICKNESS Mean ± SE ([4]; 5 mg/kg p.o.): 0.66 ± 0.01 mm | PERCENT INHIBITION (DTH response) ([4]; 10 mg/kg p.o.): 29.35↓ % | FOOT PAD THICKNESS Mean ± SE ([4]; 10 mg/kg p.o.): 0.65 ± 0.02 mm | SRBC induced DTH reaction ([4]; orally administered, graded doses): dose dependent decrease
